# Data published in article PMC10045298, “In Vitro Pharmacokinetic Behavior of Antiviral 3-Amidinophenylalanine Derivatives in Rat, Dog and Monkey Hepatocytes” (Biomedicines, 2023).
# Entries after “also recorded” stand apart in the source; their conditions may differ. Read-outs that look alike come from different tables or passages of the source.
# Experiments:
# human serum albumin = settings: cited from earlier work
# CYP1A2 = settings: cited from earlier work
# SARS-CoV-2 [1] = test system: SARS-CoV-2; parameters: method as in PMID 32703818; settings: Calu-3 cells (airway epithelial cells) infected with SARS-CoV-2; cited from earlier work
# human CYP3A4 = settings: cited from earlier work
# cynomolgus monkey CYP1A2 = settings: cited from earlier work
# CYP2C9 = settings: cited from earlier work
# CYP2C19 = settings: cited from earlier work
# TMPRSS2 [2] = settings: competitive inhibition; previous enzyme kinetic measurements; cited from earlier work
# dog primary hepatocytes = assay: Depletion of inhibitors in dog primary hepatocyte suspension (LC-MS/MS), PK prediction; type: in vitro ADME; settings: for Extraction Ratio EH / Classification / Predicted Cl CLH: dog; for Depletion of parent compound (in words): 10 µM; for Classification: 0.3 cut-off of E between low and intermediate extraction; for Predicted Cl CLH: fu = 1
# Description: (§1) Cryopreserved rat, dog and cynomolgus monkey primary hepatocytes were obtained from Primacyt (Primacyt, Schwerin, Germany). Hepatocytes were thawed using cryopreserved hepatocyte thawing medium (Primacyt, Schwerin, Germany), and cells were centrifuged (10 min, 100× g, 20 °C) to remove supernatants. The viability of hepatocytes was examined by the Trypan blue exclusion method, and it was confirmed that more than 90% of the cells were alive. Cell suspensions were then diluted with serum-free maintenance medium (Primacyt, Schwerin, Germany) after cell counting in Bürker chamber to the appropriate concentration (original concentration of the viable hepatocytes was 10^7 cells/mL).
# (§2) Stock solutions of MI-463, MI-472, MI-485 and MI-1900 (10 mM) in dimethyl-sulfoxide were kept at −20 °C. Time courses of the unchanged amount of the inhibitors (in %) after incubation with hepatocytes were measured. Each compound was incubated in cell suspension (at the concentration of 5 × 10^5 cells/mL in 6-well plates) at constant and low-speed shaking at 37 °C in a humid atmosphere containing 5% CO2. […] Cells were incubated with serum-free maintenance medium either without or with each selected MI for 5 h. At various time points (0, 30, 60, 120, 180, and 300 min), the incubation mixtures were sampled (aliquots: 0.15 mL) and terminated by the addition of 0.1 mL ice-cold acetonitrile. The cell debris was separated by centrifugation, and the supernatants were analyzed by LC-MS/MS for quantitation of the remaining amount of the inhibitors.
# (§3) For the LC-MS/MS investigations, 120 μL from the incubation mixture samples obtained as described above was removed and mixed with 315 μL chilled acetonitrile and 15 μL triphenylphosphate solution (TPP; 12000 ng/mL in acetonitrile) used as internal standard for the quantitation. After vortex mixing, the samples were centrifuged at 4 °C and 13300 RPM for 10 min. The supernatant was filtered through a PVDF syringe filter of 0.22 μm pore diameter, then transferred to chromatographic vials.
# (§4) The LC-MS/MS instrument used for analyzing the MI compounds was a Shimadzu LCMS 8030+ system operated with an electrospray ion source (ESI) in positive multiple reaction monitoring (MRM) mode. A Phenomenex Kinetex C18 EVO 100 × 4.6 mm ID (2.6 µm particle size) column equipped with a 40 × 2 mm C18 guard column was used for the chromatographic separation. Gradient elution was used with eluents “A”: 50 mM ammonium acetate in water (pH 5 set by acetic acid) and “B”: 0.1 v/v% formic acid in acetonitrile. The flow rate was 0.4 mL/min, a chromatographic run took 8 min. The column oven was set to 30 °C, and the autoinjector’s temperature was at 6 °C. The injected volume was 10 µL. Other MS parameters were as follows: interface 4.5 kV; interface temperature 350 °C; desolvation line 300 °C; heat block 400 °C; detector 1.78 kV, nebulizing gas (N2) 3 liters/min, drying gas (N2) 15 liters/min; collision gas (Ar) 230 kPa.
# (§5) The intrinsic clearance for hepatocytes (Clint) [mL (min 5 × 10^5 cells) ^−1] was calculated from the decrease in the concentration of MI compounds as follows: Clint = β=ln2/t1/2 [28] For scaling up, the Clint value to obtain Clint per whole liver (g)/bw(kg), the cell concentration in liver, the average liver weight and average body weight parameters were used (Table 1). The value for hepatic clearance (ClH) was calculated as follows: ClH=Clintliver/bw∗fu∗Qplasma/(Clintliver/bw∗fu)+Qplasma where the flow rate of Qplasma = QH* plasma/blood ratio. To calculate ClH, the hepatic flow rate, plasma/blood ratio (Table 1) and fu = 1 values were used. (QH is the hepatic blood flow, while fu is the unbound fraction of the compound.) The hepatic extraction ratio was defined as E = ClH/QH, and the bioavailability (%) was F = (1 − E) * 100 [28, 31, 32, 33].
# [3] = as above; type: in vitro ADME; settings: dog, cryopreserved primary hepatocytes in suspension, dog hepatocytes, 10 µM inhibitor, 5 × 10^5 cells/mL, 0-300 min, scaled to liver/bw
# Description: as §1, §2, §3, §4, §5
# [4] = Depletion of inhibitors in cynomolgus monkey primary hepatocyte suspension (LC-MS/MS), PK prediction; type: in vitro ADME; settings: cynomolgus monkey, cryopreserved primary hepatocytes in suspension; macaque hepatocytes, 10 µM inhibitor, 5 × 10^5 cells/mL, 0-300 min, scaled to liver/bw
# Description: as §1, §2, §3, §4, §5
# [5] = test system: cynomolgus monkey primary hepatocytes; assay: as above; type: in vitro ADME; settings: for Depletion of parent compound (in words): cynomolgus monkey hepatocytes, 10 µM, 0-300 min; for Extraction Ratio EH / Classification / Predicted Cl CLH: macaque; for Classification: 0.3 cut-off of E between low and intermediate extraction; for Predicted Cl CLH: fu = 1
# Description: as §1, §2, §3, §4, §5
# matriptase = settings: previous enzyme kinetic measurements, cited from earlier work
# rat primary hepatocytes = assay: Depletion of inhibitors in rat primary hepatocyte suspension (LC-MS/MS), PK prediction; type: in vitro ADME; settings: for Extraction Ratio EH / Classification / Predicted Cl CLH: rat; for Classification: 0.3 cut-off of E between low and intermediate extraction; for Predicted Cl CLH: fu = 1
# Description: as §1, §2, §3, §4, §5
# [6] = as above; type: in vitro ADME; settings: cryopreserved primary hepatocytes in suspension; rat hepatocytes, 10 µM inhibitor, 5 × 10^5 cells/mL, 0-300 min, scaled to liver/bw
# Description: as §1, §2, §3, §4, §5
# H9N2 influenza virus = settings: MDCK cells, matriptase-dependent; cited from earlier work
# TMPRSS2 [7] = test system: TMPRSS2; parameters: method as in PMID 35344983; settings: cited from earlier work
# SARS-CoV-2 [8] = test system: SARS-CoV-2; parameters: method as in PMID 35344983; settings: human lung epithelium-derived human airway cells; cited from earlier work
# SARS-CoV-2 [9] = test system: SARS-CoV-2; parameters: method as in PMID 35344983; settings: K18-human ACE2 transgenic mouse model; cited from earlier work
# COVID-19 = test system: COVID-19; parameters: method as in PMID 35803469; settings: repurposed drug candidate; cited from earlier work
SMILES,Binding to human serum albumin (human serum albumin),Influence on CYP1A2 activity (CYP1A2),Modulation of human CYP3A4 function (human CYP3A4),Modulation of cynomolgus monkey CYP1A2 (cynomolgus monkey CYP1A2),Influence on CYP2C9 activity (CYP2C9),Influence on CYP2C19 activity (CYP2C19),Extraction Ratio EH (dog primary hepatocytes),"Depletion of parent compound (in words) (dog primary hepatocytes; dog hepatocytes, 0-300 min)",Classification (dog primary hepatocytes),Predicted Cl CLH (dog primary hepatocytes),CLint scaled at 10 µM [3] [mL/min/kg],CLint scaled at 10 µM [4] [mL/min/kg],Extraction Ratio EH [5],Classification [5],Predicted Cl CLH [5],Extraction Ratio EH (rat primary hepatocytes),Classification (rat primary hepatocytes),Predicted Cl CLH (rat primary hepatocytes),CLint scaled at 10 µM [6] [mL/min/kg],further results
N=C(N)c1cccc(C[C@H](NS(=O)(=O)c2cccc(-c3ccc(Cl)cc3Cl)c2)C(=O)N2CCC(CCN)CC2)c1.O=C(O)C(F)(F)F.O=C(O)C(F)(F)F [MI-432],did not bind to human serum albumin to a great extent,did not influence the activity,could modulate,could modulate,did not influence the activity,did not influence the activity,–,–,–,–,–,–,–,–,–,–,–,–,–,SARS-CoV-2 virus titer (SARS-CoV-2 [1]): could successfully lower viral titers; also recorded: effectively decrease SARS-CoV-2 virus titer
COc1ccc(-c2cccc(S(=O)(=O)N[C@@H](Cc3cccc(C(=N)N)c3)C(=O)N3CCC(NC(=O)NC4CCCCC4)CC3)c2)c(OC)c1 [MI-463],did not bind to human serum albumin to a great extent,did not influence the activity,could modulate,could modulate,did not influence the activity,did not influence the activity,0.299,slowly decreased from 180 min; also recorded: pronounced stability against biotransformation,Low-extraction drug,9.25,19.5,6.58,0.121,Low-extraction drug,5.27,0.289,Low-extraction drug,15.97,31.9,"Ki (TMPRSS2 [2]): very low, nanomolar; Depletion of parent compound (in words) [5]: elevated depletion rates; Ki (matriptase): very low, nanomolar; Depletion of parent compound (in words) (rat primary hepatocytes; rat hepatocytes, 10 µM, 0-300 min): elevated depletion rates"
COc1ccc(-c2cccc(S(=O)(=O)N[C@@H](Cc3cccc(C(=N)N)c3)C(=O)N3CCC(N)CC3)c2)c(OC)c1 [MI-472],–,–,–,–,–,–,0.343,significantly depleted even at 30 min,Intermediate-extraction drug,10.61,26.7,12,0.190,Low-extraction drug,8.27,0.305,Intermediate-extraction drug,16.85,35.6,–
COc1ccc(-c2cccc(S(=O)(=O)N[C@@H](Cc3cccc(C(=N)N)c3)C(=O)N3CCC(NC(=O)NC(C)(C)C)CC3)c2)c(OC)c1 [MI-485],–,–,–,–,–,–,0.321,significantly depleted even at 30 min,Intermediate-extraction drug,9.93,22.8,11.4,0.183,Low-extraction drug,7.98,0.314,Intermediate-extraction drug,17.33,37.8,Ki (matriptase; read-out: Ki): < 5 nM; Inhibition of H9N2 influenza virus replication (H9N2 influenza virus): showed inhibition
COc1ccc(-c2cccc(S(=O)(=O)N[C@@H](Cc3cccc(C(=N)N)c3)C(=O)N3CCN(C(=O)NC4CCCCC4)CC3)c2)c(OC)c1 [MI-1900],did not bind to human serum albumin to a great extent,did not influence the activity,could modulate,could modulate,did not influence the activity,did not influence the activity,0.212,significantly depleted even at 30 min,Low-extraction drug,6.56,10.5,16.1,0.230,Low-extraction drug,10.03,0.298,Low-extraction drug,16.43,33.8,"Ki (TMPRSS2 [2]): very low, nanomolar; CLint scaled (dog primary hepatocytes; dog hepatocytes, 10 µM inhibitor, 5 × 10^5 cells/mL, 0-300 min, scaled to liver/bw): 10.5 mL/min/kg; Depletion of parent compound (in words) [5]: depleted at the highest speed; also recorded: rapidly; also recorded: depleted faster; SARS-CoV-2 virus titer (SARS-CoV-2 [1]): could successfully lower viral titers; also recorded: effectively decrease SARS-CoV-2 virus titer; Ki (matriptase): very low, nanomolar"
"CS(=O)(=O)N[C@@H](CCC(N)=O)C(=O)N[C@@H](Cc1ccccc1)C(=O)N[C@@H](CCCN=C(N)N)C(=O)c1nc2ccccc2s1 [N-0385, Ms-Gln-Phe-Arg-kbt]",–,–,–,–,–,–,–,–,–,–,–,–,–,–,–,–,–,–,–,IC50 (TMPRSS2 [7]): […]; Inhibition of SARS-CoV-2 infection (SARS-CoV-2 [8]): effective; Inhibition of SARS-CoV-2 infection (SARS-CoV-2 [9]): effective
"CN(C)C(=O)COC(=O)Cc1ccc(OC(=O)c2ccc(NC(=N)N)cc2)cc1.CS(=O)(=O)O [camostate, camostate mesylate]",–,–,–,–,–,–,–,–,–,–,–,–,–,–,–,–,–,–,–,Outcome of clinical testing for COVID-19 (COVID-19): failed during clinical testing
